In patent US6750199B2, “Antimicrobial sulfonamide derivatives of lipopeptide antibiotics” (Micrologix Biotech Inc., priority 2000, dated 2004):
≈ marks a conversion by molar mass, not a printed value. Read-outs that look alike come from different tables or passages of the source. Starred links: 1 amine or outer side, 2 acyl side, 3 side chain; linkers in the order of their positions; H or OH if unused. Positions of bridges follow the written chain, without caps; N, C: chain ends. Non-standard residues stand in square brackets, D forms with d. Residues, ends and D or L forms follow the SMILES beside them. ξ: configuration not given here. *: point of attachment. Hexadecanesulfonyl = CCCCCCCCCCCCCCCCS(=O)(=O)*; ξAbu(βξ-NH2) = CC(N[*:3])C(N[*:1])C(=O)[*:2]; ξAsp(βξ-Me) = CC(C(=O)O)C(N)C(=O)O; ξAbu(3ξ-NH2) = CC(N)C(N)C(=O)O; X1 = CCCCCCCCCCS(=O)(=O)*; Pip = O=C(O)[CH]1CCCCN1; ξD = NC(CC(=O)O)C(=O)O; Dap = NC[CH](N)C(=O)O; ξI = CCC(C)C(N)C(=O)O; ξPip = O=C(O)C1CCCCN1; ξT = CC(O)C(N)C(=O)O; ξDap = NCC(N)C(=O)O; ξP = O=C(O)C1CCCN1

Tests used:
[1] = test system: Staphlococcus aureus strain Smith; assay type: cell-based
Protocol: MIC values were determined by microliter serial dilution using Staphlococcus aureus strain Smith as the assay organism, which was grown in Mueller-Hinton broth with and without CaCl2.

Staphylococuss aureus = test: Resistance to deacylase enzyme: agar well zone diffusion bioassay of deacylase broth samples; assay type: cell-based; settings: 9 mm well, 100 μl of sample, incubated 16 hrs. at 28° C.; for Bioassay zone dia. 16 hours: after 16 hours in deacylase broth, 200 rpm, 84° C.; for Bioassay zone dia. Zero time: zero time in deacylase broth
Protocol: (§1) One milligram of the hexadecylsulfonyl-L-tryptophan derivative of the core antibiotic of laspartomycin (see Section 5.4 for preparation) was added to 2 mL of deacylase broth (prepared as described in Section 5.1) and a zero time sample (0.5 mL) was removed and stored by freezing. The reaction mixture was placed on a shaker at 200 rpm and 84° C. for 16 hours. The zero and 16 hour samples were then studied by HPLC and by agar well zone diffusion assay using Staphylococuss aureus as a test organism. The same conditions were used to compare laspartomycin to enzyme deactivation. […] Under the same conditions Antibiotic A21978C and Aspartocin were completely deactivated within two hours and 16 hours, respectively.

deacylase broth = test: in vitro; assay type: in vitro ADME, Actinoplanes utahensis NRRL 12052
Protocol: (§2) The high-producing, natural variant was used in the known fermentation protocol employed (Boeck et al., 1988. J. Antibiot., 41, 1085). A stock culture of Actinoplanes utahensis NRRL 12052 variant, preserved in 20% glycerol at −70° C., was introduced into a 25×150 mm test tube containing 10 mL of a medium comprised of 2.0% sucrose, 2.0% pre-cooked oatmeal, 0.5% distiller's grain, 0.25% yeast, 0.1% K2HPO4, 0.05% KCl, 0.05% MgSO4-7H2O and 0.0002% FeSO4-7H2O in deionized water. After incubation at 30° C. for 72 hrs on a rotary shaker orbiting at 250 rpm the resulting mycelial suspension was transferred into 50 mL of PM3 medium in a 250 mL Erlenmeyer flask. The PM3 medium contained 2.0% sucrose, 1.0% peanut meal, 0.12% K2HPO4, 0.05% KH2PO4 and 0.025% MgSO4-7H2O, in tap water. The flask was incubated at a temperature of 30° C. for a period of between 60 to 90 hrs. The whole broth from this fermentation contained the deacylase enzyme.
as §1

Staphylococcus aureus = test: MIC against Staphylococcus aureus (comparison with aspartocin); assay type: cell-based
Protocol: One drop of piperdine was added to about 5.5 mg of the product from Section 5.2.4 dissolved in 2.0 mL of 2:1 mixture of dimethylsulfoxide:methanol. Monitoring by HPLC indicated the reaction was complete after 60 minutes at room temperature. The reaction was quenched by addition of 6.0 mL cooled 0.2 M ammonium phosphate at pH 7.2. The quenched reaction mixture was applied to a 0.5 g resin cartridge (ENVI-Chrom P) and eluted with a stepwise gradient of pH 7.2 phosphate-buffered aqueous acetonitrile. The product was eluted with 25% acetonitrile. Appropriate fractions were pooled and acetonitrile was removed under vacuum at room temperature. The product was desalted by adsorption onto a 0.5 g resin cartridge which was then rinsed with 10% acetonitrile, followed by 50% acetonitrile. The 50% acetonitrile eluate was evaporated to remove acetonitrile and the resulting aqueous solution freeze dried to provide about 1.5 mg of white solid. FAB-MS: m/z 1379 (M+Na)^+ was consistent with the expected structure.

deacylase = test: in vitro; assay type: in vitro ADME, Actinoplanes utahensis NRRL 12052; settings: Actinoplanes utahensis, cells or culture medium
Protocol: as §2, §1

laspartomycin [reference compound]
MIC w CaCl2 (4 mm) ([1]; S. aureus strain Smith, Mueller-Hinton broth, with CaCl2 (4 mm)): 2000 µg/mL | MIC w/o CaCl2 ([1]; S. aureus strain Smith, Mueller-Hinton broth, without CaCl2): 16000 µg/mL | Bioassay zone dia. 16 hours (Staphylococuss aureus): no zone | Bioassay zone dia. Zero time (Staphylococuss aureus): 15.5 mm | HPLC Peak Area zero time (deacylase broth): 100% | deactivation / degradation by the enzyme preparation (in words) (deacylase broth): complete deactivation | HPLC Peak Area 16 hours (deacylase broth; Actinoplanes utahensis, cells or culture medium, 16 h, 0.5 mg/mL): 0%

CCCCCCCCCCCCCCCCS(=O)(=O)NC(Cc1ccccc1)C(=O)NC(CC(=O)O)C(=O)NC1CNC(=O)C2CCCN2C(=O)C(C(C)CC)NC(=O)C(C(C)O)NC(=O)CNC(=O)C(CC(=O)O)NC(=O)CNC(=O)C(CC(=O)O)NC(=O)CNC(=O)C2CCCCN2C1=O (stereo not drawn) [Compound 56] (Hexadecanesulfonyl-FD[Dap][Pip]GDGDGTIP; lactam 3-C; configuration not given here)
MIC w CaCl2 (4 mm) [1]: 4000 µg/mL (≈ 2740 µM) | MIC w/o CaCl2 [1]: 8000 µg/mL (≈ 5480 µM)

Decanesulfonylglycyl Aspartocin [decanesulfonylglycyl derivative]
MIC values compared with aspartocin (Staphylococcus aureus): essentially the same as those for aspartocin

CCCCCCCCCCS(=O)(=O)NCC(=O)NC(CC(=O)O)C(=O)NC1C(=O)N2CCCCC2C(=O)NC(C(C)C(=O)O)C(=O)NC(CC(=O)O)C(=O)NCC(=O)NC(CC(=O)O)C(=O)NCC(=O)NC(C(C)N)C(=O)NC(C(C)C)C(=O)N2CCCC2C(=O)NC1C (stereo not drawn) [Compound 58] (X1-GD[ξAbu(βξ-NH2)][Pip][ξAsp(βξ-Me)]DGDG[ξAbu(3ξ-NH2)]VP; lactam 3-C; configuration not given here)
MIC w CaCl2 (4 mm) [1]: 1000 µg/mL (≈ 737 µM) | MIC w/o CaCl2 [1]: 32000 µg/mL (≈ 23600 µM)

CCCCCCCCCCCCCCCCS(=O)(=O)NC(Cc1ccccc1)C(=O)NC(CC(=O)O)C(=O)NC1C(=O)N2CCCCC2C(=O)NC(C(C)C(=O)O)C(=O)NC(CC(=O)O)C(=O)NCC(=O)NC(CC(=O)O)C(=O)NCC(=O)NC(C(C)N)C(=O)NC(C(C)C)C(=O)N2CCCC2C(=O)NC1C (stereo not drawn) [Compound 62] (Hexadecanesulfonyl-FD[ξAbu(βξ-NH2)][Pip][ξAsp(βξ-Me)]DGDG[ξAbu(3ξ-NH2)]VP; lactam 3-C; configuration not given here)
MIC w CaCl2 (4 mm) [1]: 4000 µg/mL (≈ 2610 µM) | MIC w/o CaCl2 [1]: 4000 µg/mL (≈ 2610 µM)

CCCCCCCCCCCCCCCCS(=O)(=O)N[C@@H](Cc1c[nH]c2ccccc12)C(=O)N[C@@H](CC(=O)O)C(=O)NC1CNC(=O)C2CCCN2C(=O)C(C(C)CC)NC(=O)C(C(C)O)NC(=O)CNC(=O)C(CC(=O)O)NC(=O)CNC(=O)C(CC(=O)O)NC(=O)CNC(=O)C2CCCCN2C1=O (stereo partly drawn) [Hexadecylsulfonyl-L-Tryptophan Derivative of the Core Antibiotic of Laspartomycin] (Hexadecanesulfonyl-WD[ξDap][ξPip]G[ξD]G[ξD]G[ξT][ξI][ξP]; lactam 3-C)
Bioassay zone dia. 16 hours (Staphylococuss aureus): 12.8 mm | Bioassay zone dia. Zero time (Staphylococuss aureus): 13.7 mm | remaining at 16 h, 0.5 mg/mL (deacylase): 53% | HPLC Peak Area zero time (deacylase broth): 100% | deactivation / degradation by the enzyme preparation (in words) (deacylase broth): degraded at a much slower rate

CCCCCCCCCCCCCCCCS(=O)(=O)NC(Cc1c[nH]c2ccccc12)C(=O)NC(CC(=O)O)C(=O)NC1CNC(=O)C2CCCN2C(=O)C(C(C)CC)NC(=O)C(C(C)O)NC(=O)CNC(=O)C(CC(=O)O)NC(=O)CNC(=O)C(CC(=O)O)NC(=O)CNC(=O)C2CCCCN2C1=O (stereo not drawn) [Compound 52] (Hexadecanesulfonyl-WD[Dap][Pip]GDGDGTIP; lactam 3-C; configuration not given here)
MIC w CaCl2 (4 mm) [1]: 4000 µg/mL (≈ 2670 µM) | MIC w/o CaCl2 [1]: 8000 to 16000 µg/mL
